Experimental data: patent US20230115945A1, “AMINOPYRIMIDINE COMPOUNDS” (TYRA BIOSCIENCES, INC., priority 2019, published 2023)

Assays:
Settings in all cases: 11-point 3-fold dilution, qPCR readout
FGFR3 = target: T1, FGFR3 (Homo sapiens, UniProt P22607); experiment: Kinase binding assay (Kd), FGFR3
T1 construct: made in house; host or cells: E. coli host derived from BL21, infected with T7 phage
Experimental: (§1) Kinase-tagged T7 phage strains were prepared in an E. coli host derived from the BL21 strain. E. coli were grown to log-phase and infected with T7 phage and incubated with shaking at 32° C. until lysis. The lysates were centrifuged and filtered to remove cell debris. Streptavidin-coated magnetic beads were treated with biotinylated small molecule ligands for 30 minutes at room temperature to generate affinity resins for kinase assays. The liganded beads were blocked with excess biotin and washed with blocking buffer SeaBlock (Pierce), 1% BSA, 0.05% Tween 20, 1 mM DTT to remove unbound ligand and to reduce non-specific binding. Binding reactions were assembled by combining kinases, liganded affinity beads, and test compounds in 1× binding buffer (20% SeaBlock, 0.17×PBS, 0.05% Tween 20, 6 mM DTT).
(§2) Test compounds were prepared as 111X stocks in 100% DMSO. Kds were determined using an 11-point 3-fold compound dilution series with three DMSO control points. All compounds for Kd measurements are distributed by acoustic transfer (non-contact dispensing) in 100% DMSO. The compounds were then diluted directly into the assays such that the final concentration of DMSO was 0.9%. All reactions performed in polypropylene 384-well plate. Each was a final volume of 0.02 ml. The assay plates were incubated at room temperature with shaking for 1 hour and the affinity beads were washed with wash buffer (lx PBS, 0.05% Tween 20). The beads were then re-suspended in elution buffer (lx PBS, 0.05% Tween 20, 0.5 μM non-biotinylated affinity ligand) and incubated at room temperature with shaking for 30 minutes. The kinase concentration in the eluates was measured by qPCR.
(§3) Binding constants were calculated with a standard dose-response curve using the Hill equation: […]
(§4) The Hill Slope was set to −1. Curves were fitted using a non-linear least square fit with the Levenberg-Marquardt algorithm.

FGFR1 = target: T2, FGFR1 (Homo sapiens, UniProt P11362); experiment: Kinase binding assay (Kd), FGFR1
T2 construct: made in house; host or cells: E. coli host derived from BL21, infected with T7 phage
T2 sequence (P11362 22-822): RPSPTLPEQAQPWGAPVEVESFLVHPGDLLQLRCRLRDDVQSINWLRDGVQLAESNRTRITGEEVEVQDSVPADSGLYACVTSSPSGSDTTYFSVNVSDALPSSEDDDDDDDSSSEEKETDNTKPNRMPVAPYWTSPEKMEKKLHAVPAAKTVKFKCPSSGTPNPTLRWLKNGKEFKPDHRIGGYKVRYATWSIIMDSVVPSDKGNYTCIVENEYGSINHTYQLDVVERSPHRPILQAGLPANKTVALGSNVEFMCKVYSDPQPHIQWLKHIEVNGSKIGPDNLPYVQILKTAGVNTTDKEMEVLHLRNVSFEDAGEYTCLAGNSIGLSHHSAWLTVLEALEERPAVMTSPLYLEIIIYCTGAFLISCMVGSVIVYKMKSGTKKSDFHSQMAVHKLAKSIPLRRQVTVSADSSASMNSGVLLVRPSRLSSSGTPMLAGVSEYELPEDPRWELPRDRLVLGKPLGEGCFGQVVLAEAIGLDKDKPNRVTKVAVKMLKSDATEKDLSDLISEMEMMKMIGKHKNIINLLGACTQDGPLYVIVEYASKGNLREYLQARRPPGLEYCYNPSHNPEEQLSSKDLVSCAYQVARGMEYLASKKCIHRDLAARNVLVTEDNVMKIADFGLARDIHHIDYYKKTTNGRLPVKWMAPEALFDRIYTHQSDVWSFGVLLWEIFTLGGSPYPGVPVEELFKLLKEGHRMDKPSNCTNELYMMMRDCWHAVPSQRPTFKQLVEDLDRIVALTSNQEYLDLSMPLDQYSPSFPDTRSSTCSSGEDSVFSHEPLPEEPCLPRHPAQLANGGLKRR
Experimental: as §1, §2, §3, §4

FGFR3 (V555M) = target: T3, FGFR3 (V555M) (Homo sapiens, UniProt P22607, V555M); experiment: Kinase binding assay (Kd), FGFR3 (V555M)
T3 construct: made in house; host or cells: E. coli host derived from BL21, infected with T7 phage
T3 sequence (P22607 23-806 V555M): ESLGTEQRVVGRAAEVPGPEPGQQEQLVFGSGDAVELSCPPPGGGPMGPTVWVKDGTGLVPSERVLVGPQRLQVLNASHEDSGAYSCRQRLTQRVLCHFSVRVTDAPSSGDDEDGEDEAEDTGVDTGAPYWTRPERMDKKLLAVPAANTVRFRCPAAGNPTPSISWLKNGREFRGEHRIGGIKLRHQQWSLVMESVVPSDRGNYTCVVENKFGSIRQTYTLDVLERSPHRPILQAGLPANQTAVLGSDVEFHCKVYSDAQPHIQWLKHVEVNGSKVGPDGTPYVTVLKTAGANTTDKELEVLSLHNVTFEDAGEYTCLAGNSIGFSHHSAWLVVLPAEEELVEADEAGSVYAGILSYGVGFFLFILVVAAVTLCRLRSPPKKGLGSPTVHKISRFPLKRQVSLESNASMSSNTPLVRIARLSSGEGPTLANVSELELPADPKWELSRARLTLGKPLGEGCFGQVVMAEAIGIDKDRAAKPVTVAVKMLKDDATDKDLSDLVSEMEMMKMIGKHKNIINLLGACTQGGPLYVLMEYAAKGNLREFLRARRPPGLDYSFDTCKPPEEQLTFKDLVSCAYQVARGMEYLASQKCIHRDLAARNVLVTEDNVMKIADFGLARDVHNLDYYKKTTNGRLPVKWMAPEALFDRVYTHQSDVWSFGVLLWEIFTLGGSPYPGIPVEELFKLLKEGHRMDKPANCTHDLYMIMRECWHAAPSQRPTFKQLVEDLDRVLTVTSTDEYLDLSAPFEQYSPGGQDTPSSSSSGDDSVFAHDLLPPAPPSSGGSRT
Experimental: as §1, §2, §3, §4

FGFR4 = target: T4, FGFR4 (Homo sapiens, UniProt P22455); experiment: Kinase binding assay (Kd), FGFR4
T4 construct: made in house; host or cells: E. coli host derived from BL21, infected with T7 phage
T4 sequence (P22455 22-802): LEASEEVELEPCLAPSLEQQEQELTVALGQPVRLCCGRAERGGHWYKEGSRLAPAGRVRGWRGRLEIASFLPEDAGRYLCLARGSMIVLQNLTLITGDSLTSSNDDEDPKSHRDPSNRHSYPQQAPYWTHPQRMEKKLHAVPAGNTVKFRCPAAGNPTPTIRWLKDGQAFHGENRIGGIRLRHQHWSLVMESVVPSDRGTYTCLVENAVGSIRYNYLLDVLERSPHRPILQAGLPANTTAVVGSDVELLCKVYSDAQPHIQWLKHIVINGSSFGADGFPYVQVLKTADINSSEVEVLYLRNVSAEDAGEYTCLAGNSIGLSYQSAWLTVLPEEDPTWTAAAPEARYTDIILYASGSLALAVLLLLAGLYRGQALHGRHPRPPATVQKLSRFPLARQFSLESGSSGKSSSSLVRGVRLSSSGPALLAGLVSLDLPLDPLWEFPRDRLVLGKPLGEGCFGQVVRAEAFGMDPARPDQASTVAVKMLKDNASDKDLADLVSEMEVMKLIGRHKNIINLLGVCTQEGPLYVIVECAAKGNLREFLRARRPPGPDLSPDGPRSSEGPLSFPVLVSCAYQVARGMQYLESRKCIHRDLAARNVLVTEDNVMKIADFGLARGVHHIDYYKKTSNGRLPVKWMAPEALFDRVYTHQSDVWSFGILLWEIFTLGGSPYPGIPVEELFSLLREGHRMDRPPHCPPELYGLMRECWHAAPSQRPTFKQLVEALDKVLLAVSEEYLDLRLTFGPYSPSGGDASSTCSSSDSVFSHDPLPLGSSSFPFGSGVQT
Experimental: as §1, §2, §3, §4

FGFR2 = target: T5, FGFR2 (Homo sapiens, UniProt P21802); experiment: Kinase binding assay (Kd), FGFR2
T5 construct: made in house; host or cells: E. coli host derived from BL21, infected with T7 phage
T5 sequence (P21802 22-821): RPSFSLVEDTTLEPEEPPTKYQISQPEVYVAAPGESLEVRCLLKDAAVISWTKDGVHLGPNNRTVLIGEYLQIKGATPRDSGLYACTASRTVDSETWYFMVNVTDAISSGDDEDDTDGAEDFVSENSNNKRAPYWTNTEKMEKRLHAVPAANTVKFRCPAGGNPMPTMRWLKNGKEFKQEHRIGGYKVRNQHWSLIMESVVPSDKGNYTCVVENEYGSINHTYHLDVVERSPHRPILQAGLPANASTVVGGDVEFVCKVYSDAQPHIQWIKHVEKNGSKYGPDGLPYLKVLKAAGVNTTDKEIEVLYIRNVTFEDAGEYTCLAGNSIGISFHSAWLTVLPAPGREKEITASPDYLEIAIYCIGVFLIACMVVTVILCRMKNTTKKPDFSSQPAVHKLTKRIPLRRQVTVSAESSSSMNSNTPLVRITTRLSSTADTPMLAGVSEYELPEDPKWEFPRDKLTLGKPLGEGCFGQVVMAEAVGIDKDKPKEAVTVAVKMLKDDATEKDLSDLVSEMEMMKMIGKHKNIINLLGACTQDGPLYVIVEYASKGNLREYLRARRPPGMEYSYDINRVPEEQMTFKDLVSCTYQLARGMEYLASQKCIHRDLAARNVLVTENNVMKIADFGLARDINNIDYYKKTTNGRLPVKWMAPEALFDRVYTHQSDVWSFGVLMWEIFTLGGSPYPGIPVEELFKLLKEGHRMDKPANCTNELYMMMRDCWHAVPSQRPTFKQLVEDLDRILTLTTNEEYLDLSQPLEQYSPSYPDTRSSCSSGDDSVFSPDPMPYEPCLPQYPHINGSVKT
Experimental: as §1, §2, §3, §4

T1 sequence (P22607 23-806): as the sequence (P22607 23-806 V555M) above, with M533V counted along it

| Compound | Kd (FGFR3) | Kd (FGFR1) | Kd (FGFR3 (V555M)) | Kd (FGFR4) | Kd (FGFR2) |
| --- | --- | --- | --- | --- | --- |
| CS(C)(=O)=Nc1ccc(Nc2nccc(-c3c[nH]c4ccccc34)n2)cc1 [Example 10, N-[4-[[dimethyl(oxo)-λ^6-sulfanylidene]amino]phenyl]-4-(1H-indol-3-yl)pyrimidin-2-amine] | 370 nM | 350 nM | 57 nM | 57 nM | 3300 nM |
| COc1cc(N=S(C)(C)=O)ccc1Nc1ncc(Cl)c(-c2c[nH]c3ccccc23)n1 [Example 1, 5-chloro-N-[4-[[dimethyl(oxo)-λ^6-sulfanylidene]amino]-2-methoxy-phenyl]-4-(1H-indol-3-yl)pyrimidin-2-amine] | 170 nM | 140 nM | 15 nM | 130 nM | 370 nM |
| CN1CCS(=O)(=Nc2ccc(Nc3nccc(-n4ccc5ccccc54)n3)cc2)CC1 [Example 16, 4-Indol-1-yl-N-[4-[(4-methyl-1-oxo-1,4-thiazinan-1-ylidene)amino]phenyl]-pyrimidin-2-amine] | 570 nM | 2200 nM | 140 nM | 9500 nM | 600 nM |
| CCOc1cc(N=S(C)(C)=O)ccc1Nc1ncc(C)c(-c2c[nH]c3c(C)cccc23)n1 [Example 9, N-[4-[[dimethyl(oxo)-λ^6-sulfanylidene]amino]-2-ethoxy-phenyl]-5-methyl-4-(7-methyl-1H-indol-3-yl)pyrimidin-2-amine] | 370 nM | 350 nM | 57 nM | 57 nM | 3300 nM |
| COc1cc(S(C)(=N)=O)ccc1Nc1ncc(Cl)c(-c2c[nH]c3ccccc23)n1 (stereo not shown) [Example 36, 5-Chloro-4-(1H-indol-3-yl)-N-[2-methoxy-4-(methylsulfonimidoyl)-phenyl]pyrimidin-2-amine] | 89 nM | 72 nM | 4 nM | 57 nM | 67 nM |
| CS(C)(=O)=Nc1ccc(Nc2nccc(-n3ccc4ccccc43)n2)cc1 [Example 13, N-[4-[[dimethyl(oxo)-λ^6-sulfanylidene]amino]phenyl]-4-indol-1-yl-pyrimidin-2-amine] | 370 nM | 350 nM | 57 nM | 57 nM | 3300 nM |
| COc1ccc2c(-c3nc(Nc4ccc(N=S(C)(C)=O)cc4)ncc3C)c[nH]c2c1 [Example 30, N-[4-[[dimethyl(oxo)-λ^6-sulfanylidene]amino]phenyl]-4-(6-methoxy-1H-indol-3-yl)-5-methyl-pyrimidin-2-amine] | 35 nM | 27 nM | 2 nM | 190 nM | 41 nM |
| CS(C)(=O)=Nc1ccc(Nc2ncc(Cl)c(-c3c[nH]c4ccccc34)n2)cc1 [Example 8, 5-chloro-N-[4-[[dimethyl(oxo)-λ^6-sulfanylidene]amino]phenyl]-4-(1H-indol-3-yl)pyrimidin-2-amine] | 29 nM | 19 nM | 4 nM | 180 nM | 24 nM |
| C=CC(=O)Nc1cc(N=S(C)(C)=O)ccc1Nc1ncc(C)c(-c2c[nH]c3ccccc23)n1 [Example 20, N-[5-[[Dimethyl(oxo)-λ^6-sulfanylidene]amino]-2-[[4-(1H-indol-3-yl)-5-methyl-pyrimidin-2-yl]amino]phenyl]prop-2-enamide] | 27 nM | 37 nM | 4 nM | 120 nM | 51 nM |
| CCOc1cc(N=S(C)(C)=O)ccc1Nc1ncc(Cl)c(-c2c[nH]c3ccccc23)n1 [Example 2, 5-Chloro-N-[4-[[dimethyl(oxo)-λ^6-sulfanylidene]amino]-2-ethoxy-phenyl]-4-(1H-indol-3-yl)pyrimidin-2-amine] | 430 nM | 480 nM | 53 nM | 39 nM | 1900 nM |
| Cc1cnc(Nc2ccc(N=S(C)(C)=O)cc2)nc1-c1c[nH]c2cc(F)ccc12 [Example 29, N-[4-[[dimethyl(oxo)-λ^6-sulfanylidene]amino]phenyl]-4-(6-fluoro-1H-indol-3-yl)-5-methyl-pyrimidin-2-amine] | 21 nM | 15 nM | 4 nM | 210 nM | 46 nM |
| COc1cc(N2CCS(=N)(=O)CC2)ccc1Nc1ncc(Cl)c(-c2c[nH]c3ccccc23)n1 [Example 35, 5-Chloro-N-[4-(1-imino-1-oxo-1,4-thiazinan-4-yl)-2-methoxy-phenyl]-4-(1H-indol-3-yl)pyrimidin-2-amine] | 130 nM | 72 nM | 9 nM | 86 nM | 200 nM |
| COc1cc(S(C)(=N)=O)ccc1Nc1nccc(-n2ccc3ccccc32)n1 (stereo not shown) [Example 43, 4-Indol-1-yl-N-[2-methoxy-4-(methylsulfonimidoyl)phenyl]-pyrimidin-2-amine] | 3400 nM | 5000 nM | 680 nM | 7500 nM | 4000 nM |

Other lines, results leading:

| Kd (FGFR3) | Kd (FGFR1) | Kd (FGFR3 (V555M)) | Kd (FGFR4) | Kd (FGFR2) | Compound |
| --- | --- | --- | --- | --- | --- |
| 15 nM | 11 nM | 7 nM | 120 nM | 19 nM | N=S1(=O)CCN(c2ccc(Nc3ncc(F)c(-c4c[nH]c5ccccc45)n3)cc2)CC1 [Example 58, 5-Fluoro-N-[4-(1-imino-1-oxo-1,4-thiazinan-4-yl)phenyl]-4-(1H-indol-3-yl)pyrimidin-2-amine] |
| 1100 nM | 5000 nM | 380 nM | 500 nM | 1600 nM | C=CC(=O)Nc1ccc2c(ccn2-c2nc(Nc3ccc(S(C)(=N)=O)cc3OC)ncc2C)c1 (stereo not shown) [Example 75, N-[1-[2-[2-methoxy-4-(methylsulfonimidoyl)anilino]-5-methyl-pyrimidin-4-yl]indol-5-yl]prop-2-enamide] |
| 130 nM | 160 nM | 16 nM | 2400 nM | 130 nM | CS(C)(=O)=Nc1ccc(Nc2ncc(Cl)c(-n3ncc4cc(N)ccc43)n2)cc1 [Example 87, 1-[5-Chloro-2-[4-[[dimethyl(oxo)-λ^6-sulfanylidene]amino]anilino]-pyrimidin-4-yl]indazol-5-amine] |
| 37 nM | 18 nM | 4 nM | 190 nM | 16 nM | N=S(=O)(c1ccc(Nc2ncc(Cl)c(-c3c[nH]c4ccccc34)n2)cc1)C1CC1 (stereo not shown) [Example 47, 5-Chloro-N-[4-(cyclopropyl-sulfonimidoyl)phenyl]-4-(1H-indol-3-yl)pyrimidin-2-amine] |
| 140 nM | 250 nM | 5 nM | 4600 nM | 290 nM | CS(C)(=O)=Nc1ccc(Nc2ncc(Cl)c(-n3ccc4c(NC(=O)C5CC5)cccc43)n2)cc1 [Example 78, N-[1-[5-Chloro-2-[4-[[dimethyl(oxo)-λ^6-sulfanylidene]amino]anilino]-pyrimidin-4-yl]indol-4-yl]cyclopropanecarboxamide] |
| 150 nM | 390 nM | 11 nM | 2300 nM | 330 nM | C=CC(=O)Nc1ccc2c(ccn2-c2nc(Nc3ccc(N=S(C)(C)=O)c(F)c3)ncc2Cl)c1C [Example 84, N-[1-[5-Chloro-2-[4-[[dimethyl(oxo)-λ^6-sulfanylidene]amino]-3-fluoro-anilino]pyrimidin-4-yl]-4-methyl-indol-5-yl]prop-2-enamide] |
| 23 nM | 51 nM | 2 nM | 1900 nM | 62 nM | C=CC(=O)Nc1cccc2c1ccn2-c1nc(Nc2ccc(N3CCS(=N)(=O)CC3)cc2)ncc1Cl [Example 81] |
| 180 nM | 290 nM | 18 nM | 1300 nM | 380 nM | CCC(=O)Nc1ccc2c(ccn2-c2nc(Nc3ccc(N4CCS(=N)(=O)CC4)cc3)ncc2Cl)c1 [Example 73, N-[1-[5-chloro-2-[4-(1-imino-1-oxo-1,4-thiazinan-4-yl)anilino]pyrimidin-4-yl]indol-5-yl]propanamide] |
| 160 nM | 160 nM | 12 nM | 3000 nM | 370 nM | C=CC(=O)Nc1cccc2c1ccn2-c1nc(Nc2ccc(N=S(C)(C)=O)cc2)ncc1Cl [Example 76, N-[1-[5-Chloro-2-[4-[[dimethyl(oxo)-λ^6-sulfanylidene]amino]anilino]-pyrimidin-4-yl]indol-4-yl]prop-2-enamide] |
| 87 nM | 140 nM | 7 nM | 1000 nM | 140 nM | CS(C)(=O)=Nc1ccc(Nc2ncc(Cl)c(-n3ccc4c(N)cccc43)n2)cc1 [Example 79, 1-[5-Chloro-2-[4-[[dimethyl(oxo)-λ^6-sulfanylidene]amino]anilino]-pyrimidin-4-yl]indol-4-amine] |
